Laboratory results from patent US8017629B2, “Compounds and uses thereof in modulating amyloid β” (Neurogenetic Pharmaceuticals, Inc., priority 2003, dated 2011).

Tested on: Aβ42 levels in the extracellular medium
Test: FRET (HTRF) assay, Aβ42 level of the extracellular medium of SH-SY5Y-APP cells
Type: cell-based
Conditions: Homo sapiens, concentration at which reduction of Aβ42 level was half of the maximum reduction, read-out: Ab42 Potency
Experimental: Compounds were evaluated for activity in modulating Aβ42 and Aβ40 levels in the extracellular medium using a homogeneous time-resolved fluorescence (HTRF) assay as follows.
For the HTRF assay, either 5 or 10 μl of supernatant from treated cells was added to 10 or 15 μl of labeled antibody pairs, for a total volume of 20 μl, and incubated for 20-24 hours at 4° C. The labeled antibody pairs were either 8000 pg B436-XL665 and 400 pg B113 Europium, for assessing Aβ40 levels, or 8000 pg B436-XL665 and 400 pg A387 Europium, for assessing Aβ42 levels, diluted in 50 mM NaPO4, 0.2% BSA, 0.5M KF, pH 7. The fluorescence was read on a BMG Rubystar at 620 nm and 665 nm.

With COc1cc(Nc2nc(-c3ccc(OC(F)F)cc3)cs2)cc(OC)c1OC [Compound 109] the EC50 was 10.1 to 30 µM.
Oc1ccc(Nc2nc(-c3ccc4ccccc4c3)cs2)cc1 [Compound 124] showed an EC50 of 5.1 to 10 µM.
With COc1ccc(OC)c(Nc2nc(-c3ccc(-n4cnc(C)c4)cc3)cs2)c1 [Compound 264] the EC50 was 0.2 to 1 µM.
CSc1cccc(Nc2nc(-c3ccc(N4CCN(C)CC4)cc3)cs2)c1 [Compound 145] showed an EC50 of 1.1 to 5 µM.
Cc1cn(-c2ccc(-c3csc(Nc4ccc(N5CCOCC5)c(Cl)c4)n3)c(C(F)(F)F)c2)cn1 [Compound 229] gave an EC50 of 5.1 to 10 µM.
In the case of CCN(CC)c1ccc(Nc2nc(-c3ccc(-n4cnc(C)c4)cc3C(F)(F)F)cs2)c(C)c1 [Compound 227], the EC50 is reported as 5.1 to 10 µM.
Work on Cc1cc(C)cc(Nc2nc(-c3ccc(-n4cnc(-c5ccccc5)c4)cc3)cs2)c1 [Compound 178] yielded an EC50 of 10.1 to 30 µM.
For COc1cc(-n2cnc(C)c2)ccc1-c1csc(Nc2cc(C)c(C)cc2C)n1 [Compound 263], the EC50 was 0.2 to 1 µM.
With CN1CCN(c2ccc(Nc3nc(-c4ccc(-n5ccnc5)cc4)cs3)c(C(F)(F)F)c2)CC1 [Compound 215] the EC50 was 1.1 to 5 µM.
Work on CCN(CC)CCN(C)c1ccc(Nc2nc(-c3ccc(-n4ccnc4)cc3)cs2)c(C(F)(F)F)c1 [Compound 219] yielded an EC50 of 1.1 to 5 µM.
For CCCN(c1nc(-c2ccc(-n3ccnc3)cc2)cs1)c1ccc(N(CC)CC)cc1C [Compound 175], the EC50 was 10.1 to 30 µM.
Work on COc1ccc(-c2coc(Nc3ccccc3)n2)cc1 [Compound 338] yielded an EC50 of 10.1 to 30 µM.
With Cc1ccc(C(C)C)cc1Nc1nc(-c2ccc(-n3ccnc3)cc2)cs1 [Compound 324] the EC50 was < 0.2 µM.
CCN(CC)c1ccc(Nc2nc(-c3ccc(-n4cnc(C)c4)cc3)cs2)c(C)c1 [Compound 179] showed an EC50 of 0.2 to 1 µM.
Compound COc1ccc(-c2csc(Nc3ccc(Cl)cc3)n2)c(OC)c1 [Compound 150] has an EC50 of 1.1 to 5 µM.
For FC(F)(F)c1cc(NCCN2CCCC2)ccc1Nc1nc(-c2ccc(-n3ccnc3)cc2)cs1 [Compound 222], the EC50 was 1.1 to 5 µM.
Oc1ccc(-c2csc(Nc3ccc4c(c3)OCO4)n2)cc1O [Compound 111] was tested, and the EC50 was 1.1 to 5 µM.
With Cc1cn(-c2ccc(-c3csc(Nc4cc(C)c(O)cc4C)n3)cc2)cn1 [Compound 269] the EC50 was 5.1 to 10 µM.
For CCOc1ccc(Nc2nc(-c3ccc(N4CCN(C)CC4)cc3)cs2)cc1 [Compound 136], the EC50 was 10.1 to 30 µM.
COc1cc(C)c(Nc2nc(-c3ccc(-n4cnc(C)c4)cc3)cs2)cc1OC [Compound 267] showed an EC50 of 1.1 to 5 µM.
For CCN(CC)c1ccc(Nc2nc(-c3ccc(-n4cc(C)nc4C)cc3)cs2)c(C)c1 [Compound 249], the EC50 was 1.1 to 5 µM.
Cc1cn(-c2ccc(-c3csc(Nc4cc(C(C)C)ccc4C)n3)cn2)cn1 [Compound 327] was tested, and the EC50 was < 0.2 µM.
For Cc1ccc(Nc2nc(-c3ccc(Br)cc3)co2)c(C)c1 [Compound 344], the EC50 was 1.1 to 5 µM.
CN1CCN(c2ccc(-c3csc(Nc4ccc5c(c4)OCO5)n3)cc2)CC1 [Compound 115] showed an EC50 of 1.1 to 5 µM.
For COc1ccc(-c2csc(Nc3cccc4[nH]ncc34)n2)c(OC)c1 [Compound 171], the EC50 was 1.1 to 5 µM.
CN(C)CCNc1ccc(Nc2nc(-c3ccc(-n4ccnc4)cc3)cs2)c(C(F)(F)F)c1 [Compound 217] gave an EC50 of 1.1 to 5 µM.
Work on FC(F)(F)c1cc(NC2CCCC2)ccc1Nc1nc(-c2ccc(-n3ccnc3)cc2)cs1 [Compound 220] yielded an EC50 of 10.1 to 30 µM.
With Cc1cn(-c2ccc(-c3csc(Nc4cc(CO)ccc4C)n3)cc2)cn1 [Compound 299] the EC50 was 0.2 to 1 µM.
For CN1CCN(c2ccc(-c3csc(Nc4ccc5[nH]cnc5c4)n3)cc2)CC1 [Compound 155], the EC50 was 1.1 to 5 µM.
CCN(CC)c1ccc(Nc2nc(-c3ccc(-n4cc(C(C)O)nn4)cc3)cs2)c(C)c1 (stereo not drawn) [Compound 275] was tested, and the EC50 was 1.1 to 5 µM.
For CCN(CC)c1ccc(Nc2nc(-c3ccc(-c4ncc(Br)s4)cc3)cs2)c(C)c1 [Compound 312], the EC50 was 0.2 to 1 µM.
For CCN(CC)c1cc(C)c(Nc2nc(-c3ccc(-n4cnc(C)c4)cc3)cs2)cc1C [Compound 285], the EC50 was < 0.2 µM.
CCN1CCN(c2ccc(-c3csc(Nc4ccc5c(c4)OCO5)n3)cc2)CC1 [Compound 162] showed an EC50 of 1.1 to 5 µM.
CCN(c1ccc(N2CCCCC2)cc1)c1nc(-c2ccc(-n3ccnc3)cc2)cs1 [Compound 184] was tested, and the EC50 was 1.1 to 5 µM.
Compound Cc1ccc(-n2cccc2)cc1Nc1nc(-c2ccc(-n3cnc(Br)c3)cc2)cs1 [Compound 279] has an EC50 of 0.2 to 1 µM.
Compound COc1cc(Nc2nc(-c3ccc(N4CCN(C)CC4)cc3)cs2)cc(OC)c1OC [Compound 116] has an EC50 of 1.1 to 5 µM.
Brc1cccc(Nc2nc(-c3ccc(-n4ccnc4)cc3)cs2)c1 [Compound 212] gave an EC50 of 1.1 to 5 µM.
For CCc1ccc(C)nc1Nc1ccc(C)c(Nc2nc(-c3ccc(-n4ccnc4)cc3)cs2)c1 [Compound 257], the EC50 was 5.1 to 10 µM.
Cc1ccc(C)c(Nc2nc(-c3ccc(-n4cnc(Br)c4)cc3)cs2)c1 [Compound 316] was tested, and the EC50 was < 0.2 µM.
CCN(CC)c1cc(Nc2nc(-c3ccc(-n4cnc(C)c4)nc3)cs2)c(C)cc1C [Compound 289] was tested, and the EC50 was < 0.2 µM.
COc1ccc(Nc2nc(-c3ccc(Cl)cc3)co2)cc1 [Compound 339] was tested, and the EC50 was 1.1 to 5 µM.
Cc1cn(-c2ccc(-c3csc(Nc4cc(C)c(C)cc4C)n3)cc2)cn1 [Compound 235] showed an EC50 of 0.2 to 1 µM.
In the case of CN1CCN(c2ccc(-c3csc(Nc4cccc5ccccc45)n3)cn2)CC1 [Compound 333], the EC50 is reported as 0.2 to 1 µM.
COc1cc(C)c(Nc2nc(-c3ccc(-n4cnc(C)c4)cc3)c(C)s2)cc1C(C)C [Compound 297] was tested, and the EC50 was < 0.2 µM.
For Cc1ccc(-n2cccc2)cc1Nc1nc(-c2ccc(N3CCN(C)CC3)cc2)cs1 [Compound 323], the EC50 was 1.1 to 5 µM.
Cc1ccc(N2CCOCC2)cc1Nc1nc(-c2ccc(-n3ccnc3)cc2)cs1 [Compound 253] showed an EC50 of 0.2 to 1 µM.
For Cc1ccc(N2CCSCC2)cc1Nc1nc(-c2ccc(-n3ccnc3)cc2)cs1 [Compound 254], the EC50 was 0.2 to 1 µM.
COc1ccc(-c2csc(Nc3ccc4[nH]cnc4c3)n2)c(OC)c1 [Compound 160] gave an EC50 of 0.2 to 1 µM.
Cc1cn(-c2ccc(-c3csc(Nc4ccc(N5CCOCC5)c(Cl)c4)n3)cc2)cn1 [Compound 225] was tested, and the EC50 was 1.1 to 5 µM.
COc1ccc(C)c(Nc2nc(-c3ccc(-n4cnc(C)c4)cc3)cs2)c1 [Compound 352] was tested, and the EC50 was < 0.2 µM.
N#Cc1ccc(-c2csc(Nc3cc(Cl)cc(Cl)c3)n2)cc1 [Compound 211] showed an EC50 of 10.1 to 30 µM.
Work on CCN(CC)c1ccc(Nc2nc(-c3ccc(-n4ccnc4C)cc3)cs2)c(C)c1 [Compound 189] yielded an EC50 of 1.1 to 5 µM.
For c1cc2c(cc1Nc1nc(-c3ccc(N4CCN(CC5CC5)CC4)cc3)cs1)OCO2 [Compound 164], the EC50 was 5.1 to 10 µM.
Compound COc1ccc(-c2csc(Nc3cccc(Cl)c3)n2)c(OC)c1 [Compound 153] has an EC50 of 5.1 to 10 µM.
In the case of CCN(c1ccc(N2CCOCC2)cc1)c1nc(-c2ccc(-n3ccnc3)cc2)cs1 [Compound 180], the EC50 is reported as 1.1 to 5 µM.
For c1cn(-c2ccc(-c3csc(Nc4ccc5[nH]cnc5c4)n3)cc2)cn1 [Compound 156], the EC50 was 1.1 to 5 µM.
For Cc1ccc(CO)cc1Nc1nc(-c2ccc(-n3ccnc3)cc2)cs1 [Compound 298], the EC50 was 0.2 to 1 µM.
CN1CCN(c2ccc(-c3csc(Nc4cccc5cccnc45)n3)cc2)CC1 [Compound 128] showed an EC50 of 1.1 to 5 µM.
CCN(CCO)c1ccc(Nc2nc(-c3ccc(-n4cnc(C)c4)cc3OC)cs2)c(C)c1 [Compound 207] gave an EC50 of 1.1 to 5 µM.
For Cc1cc(C)c(Nc2nc(-c3ccc(-n4cnc(Br)c4)cc3)cs2)cc1C [Compound 236], the EC50 was 0.2 to 1 µM.
In the case of CSc1cccc(Nc2nc(-c3ccc4c(c3)OCO4)cs2)c1 [Compound 183], the EC50 is reported as 10.1 to 30 µM.
c1cc(Nc2nc(-c3ccc4c(c3)OCO4)cs2)c2cn[nH]c2c1 [Compound 172] gave an EC50 of 1.1 to 5 µM.
c1nc2cc(Nc3nc(-c4ccc5c(c4)OCO5)cs3)ccc2[nH]1 [Compound 161] showed an EC50 of 5.1 to 10 µM.
Work on c1ccc2cc(-c3csc(Nc4ccc5[nH]cnc5c4)n3)ccc2c1 [Compound 159] yielded an EC50 of 5.1 to 10 µM.
With CCN(CC)c1ccc(C)c(Nc2nc(-c3ccc(-n4ccnc4)cc3)cs2)c1 [Compound 265] the EC50 was < 0.2 µM.
With CCN(CC)c1ccc(C)c(Nc2nc(-c3ccc(-n4cnc(C)c4)nc3)cs2)c1 [Compound 270] the EC50 was < 0.2 µM.
In the case of CCN(CC)c1cc(Nc2nc(-c3cnc(-n4cnc(C)c4)nc3)cs2)c(C)cc1C [Compound 343], the EC50 is reported as < 0.2 µM.
CCN(CC)c1ccc(Nc2nc(-c3ccc(-n4ccnc4)cc3)cs2)c(C(F)(F)F)c1 [Compound 218] gave an EC50 of 1.1 to 5 µM.
With CN1CCN(c2ccc(-c3csc(Nc4ccc(OC(F)(F)F)c(Cl)c4)n3)cc2)CC1 [Compound 198] the EC50 was 1.1 to 5 µM.
COc1cc(Nc2nc(-c3ccc(-c4ccccc4)s3)cs2)cc(OC)c1OC [Compound 107] was tested, and the EC50 was 10.1 to 30 µM.
Work on CCN(CC)c1ccc(Nc2nc(-c3ccc(-n4ccnc4)cc3)cs2)cc1 [Compound 177] yielded an EC50 of 1.1 to 5 µM.
Compound COc1cccc(Nc2nc(-c3ccc(N=Nc4ccccc4)cc3)cs2)c1 [Compound 131] has an EC50 of 10.1 to 30 µM.
CCN(CC)c1cc(Nc2nc(-c3ccc(-n4ccnc4)cc3)cs2)c(C)cc1C [Compound 291] was tested, and the EC50 was < 0.2 µM.
COc1ccccc1-c1csc(Nc2ccc(Br)cc2)n1 [Compound 130] was tested, and the EC50 was 10.1 to 30 µM.
Work on CCCCN(CC)c1ccc(C)c(Nc2nc(-c3ccc(-n4cnc(C)c4)nc3)cs2)c1 [Compound 317] yielded an EC50 of 0.2 to 1 µM.
With COc1cc(C)c(Nc2nc(-c3ccc(-n4cnc(C)c4)nc3)cs2)cc1C(C)C [Compound 296] the EC50 was < 0.2 µM.
CCN(CCO)c1ccc(Nc2nc(-c3ccc(-n4cnc5ccccc54)cc3)cs2)c(C)c1 [Compound 228] was tested, and the EC50 was 5.1 to 10 µM.
For CCOc1cc(C)c(Nc2nc(-c3ccc(-n4ccnc4)nc3)cs2)cc1C [Compound 318], the EC50 was < 0.2 µM.
Work on CN1CCN(c2ccc(-c3csc(Nc4ccc5c(c4)OCO5)n3)cn2)CC1 [Compound 328] yielded an EC50 of 0.2 to 1 µM.
Work on Clc1ccc(Nc2nc(-c3ccc(-n4cnc(Cl)c4Cl)cc3)cs2)cc1Cl [Compound 186] yielded an EC50 of 1.1 to 5 µM.
In the case of CN1CCN(c2ccc(-c3csc(Nc4cccc(Cl)c4)n3)cc2)CC1 [Compound 151], the EC50 is reported as 0.2 to 1 µM.
